Data set [1] can be described thus: In Vivo Toxicity of NAALADase Inhibitors (survival of mice). The conditions noted are these: mouse, injected, read-out: Survival Rate After 5 days. From the text: The mice were subsequently observed two times per day for 5 consecutive days.
Data set [2] deals with cortical cell cultures. Kind of data set: In Vitro Toxicity of NAAG following Treatment with NAALADase Inhibitors (LDH release). It counts as cell-based, rat (Harlan Sprague Dawley). The conditions noted are these: inhibitor 1 μM; NAAG 3 μM, n = 1. As to the method: Experiments are performed after 21 days in cultures.
At the end of exposure, the cells are washed once with HEPES buffered saline solution and then replaced with serum free modified Earle's basal medium. The cultures are then returned to the CO2 incubator for 24 hour recovery.
This control measurement is subtracted from each experimental point.
For orientation: LDH leaks from cells whose membrane has failed.

Data set [3] concerns injury to the cortex in rats following middle cerebral artery occlusion. The note with it: n = 10. From the text: A colony of SHRSP rats is bred at Johns Hopkins School of Medicine from three pairs of male and female rats obtained from the National Institutes of Health (Laboratory, Sciences Section, Veterinary Resources Program, National Center for Research Resources, Bethesda, Md.). All rats are kept in a virus-free environment and maintained on regular diet (NIH 31, Zeigler Bros, Inc.) with water ad libitum. All groups of rats are allowed to eat and drink water until the morning of the experiment. […]
Arterial pH and PaCO2, and partial pressure of oxygen (PaO2) are measured with a self-calibrating Radiometer electrode system (ABL 3; Copenhagen, Denmark). Hemoglobin and arterial oxygen content are measured with a hemoximeter (Radiometer, Model OSM3; Copenhagen, Denmark). Blood glucose is measured with a glucose analyzer (model 2300A, Yellow Springs Instruments, Yellow Springs, Ohio).
Each group is exposed to 2 hours of right MCA occlusion and 22 hours of reperfusion. All variables but the rectal temperature are measured at baseline, at 15 minutes and 45 minutes of right MCA occlusion. The rectal temperature is measured at baseline, at 0 and 15 min of MCA occlusion, and at 0 and 22 hours of reperfusion.

The subject of data set [4] is LNCAP cells. The conditions noted are these: 7 days, mean +/- SEM.
Protocol: On the 7th day, the cells are pulsed with 3H-thymidine for 4 hours, harvested and measured for radioactivity. Values represent means +/- SEM of 6 separate cell wells for each treatment. All experiments are performed at least twice.
LNCAP cells are obtained from Dr. William Nelson at the Johns Hopkins School of Medicine in Baltimore, Md. […] Cells are grown in RPMI-1640 media supplemented with 5% heat-inactivated fetal calf serum, 2 mM-glutamine, 100 units/ml penicillin, and 100 μg/ml streptomycin (Paragon) in a humidified incubator at 37° C. in a 5% CO2 /95% air atmosphere.
The cells are suspended at 1×10^3 cells/ml in RPMI-1640 media and seeded into 24-well plates at 500 μl per well. […] On days 3, 5 and 7, media and drug are refreshed. On the 8th day following seeding, each well is pulsed with 1 μCi ^3 H-thymidine (New England Nuclear) for 4 hours. Media is then removed and the wells washed 2 times with phosphate buffered saline (pH=7.4). […] 5 ml UltimaGold (Packard) scintillation cocktail is added and radioactivity is quantitated using a Beckman LS6001 scintillation counter.
Data set [5] has as its target T1, NAALADase (Rattus norvegicus, UniProt P70627). The data set can be described thus: In Vitro Assay of NAALADase Activity ([3H]Glu liberated from [3H]NAAG, synaptosomal protein). It counts as biochemical. Set-up: of synaptosomal protein; from tissue; host or cells: synaptosomal protein (brain tissue; rat by inference). On the procedure: Substrate and product were resolved by anion-exchange liquid chromatography. […] Quisqualate (100 μM) was included in parallel assay tubes to confirm the specificity of the measurements.

Data set [6] deals with T1, NAALADase. The note with it: substrate NAAG; cited from earlier work.

Read-outs that look alike come from different tables or passages of the source. Where a SMILES comes first, the peptide text is derived from it.

T1 sequence (P70627 whole entry): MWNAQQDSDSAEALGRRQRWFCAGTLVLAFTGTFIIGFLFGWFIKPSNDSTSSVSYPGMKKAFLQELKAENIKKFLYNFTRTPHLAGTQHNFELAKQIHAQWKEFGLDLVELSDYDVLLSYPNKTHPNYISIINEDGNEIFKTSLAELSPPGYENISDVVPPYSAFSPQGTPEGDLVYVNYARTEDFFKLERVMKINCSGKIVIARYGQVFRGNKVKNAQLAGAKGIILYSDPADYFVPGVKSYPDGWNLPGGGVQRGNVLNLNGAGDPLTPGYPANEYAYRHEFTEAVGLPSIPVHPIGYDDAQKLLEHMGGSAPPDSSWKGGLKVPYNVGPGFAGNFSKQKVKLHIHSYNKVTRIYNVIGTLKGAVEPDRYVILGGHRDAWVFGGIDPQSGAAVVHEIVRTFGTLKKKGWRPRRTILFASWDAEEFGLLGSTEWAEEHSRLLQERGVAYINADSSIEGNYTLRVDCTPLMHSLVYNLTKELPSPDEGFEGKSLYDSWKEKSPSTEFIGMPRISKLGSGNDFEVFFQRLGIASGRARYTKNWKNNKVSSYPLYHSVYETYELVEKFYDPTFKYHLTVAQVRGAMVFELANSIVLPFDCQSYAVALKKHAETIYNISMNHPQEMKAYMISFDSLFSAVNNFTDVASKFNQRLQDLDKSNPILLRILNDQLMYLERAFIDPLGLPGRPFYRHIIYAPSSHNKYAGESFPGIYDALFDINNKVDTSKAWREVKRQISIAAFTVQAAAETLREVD

With `O=C(O)CCC(CP(=O)(O)O)C(=O)O` (centres unmarked) [2-(phosphonomethyl)pentanedioic acid], the survival at 120 h in data set [1] (1 mg/kg), in data set [1] (5 mg/kg), in data set [1] (10 mg/kg), in data set [1] (30 mg/kg), in data set [1] (100 mg/kg) and in data set [1] (300 mg/kg) was 100% each time. Also, in data set [1] (500 mg/kg), the survival at 120 h stood at 66.7%. Moreover, the “% Toxicity” value in data set [2] is -4.71%. The “Cortical Injury Volume ± S.E.M.” value came out at 135.00 ± 32.18 mm^3 in data set [3] (10 mg/kg followed by 2 mg/kg/hr for 1 hour) and 65.23 ± 32.18 mm^3 in data set [3] (100 mg/kg followed by 20 mg/kg/hr for one hour). The “3H-Thymidine Incorporation” value in data set [4] (dose 10 pM) stood at 3078 ± 1006 dpm/well; in data set [4] (dose 100 pM), 2062 ± 595 dpm/well; in data set [4] (dose 1 nM), 1001 ± 52 dpm/well; in data set [4] (dose 10 nM), 664 ± 366 dpm/well. Also, the “NAALADase inhibiting activity (in words)” value in data set [5] is listed as “high NAALADase inhibiting activity”.
As to `O=C(O)CCC(CP(=O)(O)CCC(=O)O)C(=O)O` (centres unmarked) [2-[[2-carboxyethyl)hydroxyphosphinol]methyl]pentanedioic acid], in data set [5], the “NAALADase inhibiting activity (in words)” value is “lower NAALADase inhibiting activity than 2-(phosphonomethyl)pentanedioic acid”.
Turning to `CC(=O)N[C@@H](CC(=O)O)C(=O)N[C@@H](CCC(=O)O)C(=O)O` [NAAG, N-acetyl-aspartyl-glutamate] (Ac-Asp-Glu-OH), the Km (as a rule, the substrate concentration at which the rate is half of its maximum) in data set [6] is 540 nM.

Values taken from patent US5902817A, “Certain sulfoxide and sulfone derivatives” (priority 1997, dated 1999).
